Laboratory results reported in PMC8778187, “A New Oxygen Containing Pyclen-Type Ligand as a Manganese(II) Binder for MRI and ^52Mn PET Applications: Equilibrium, Kinetic, Relaxometric, Structural and Radiochemical Studies” (Molecules, 2022).

What was measured:
[1] = Stability and protonation constants and pMn of Mn(II) complexes by pH-potentiometry; format: physicochemical
Description: The stability and protonation constants of the metal complexes formed with H2OPC2A were determined by pH-potentiometric titrations, but, for the Cu(II) complex, UV-Vis spectrophotometric measurements were also carried out to supplement the pH-potentiometric titration data (Figures S21 and S22, Supporting Information).
The validity of the equilibrium model used for the fitting of the pH-potentiometric titration data for the Mn(II) system, was supported by ^1H relaxometric measurements, when 1/T1 and 1/T2 relaxation rates were determined as a function of pH, and their trends were compared to the species distribution curves calculated by using the equilibrium constants determined by pH-potentiometry (Table 3). The equilibrium for all metal ions can be described by considering the formation of only ([M(L)]) and monoprotonated ([M(HL)]) complexes (Table 3). However, for the Mn(II), Cu(II), and Zn(II) ions, the formation of ternary hydroxido species ([M(L)(OH)]) was also considered. A comparison of the pH-relaxation rate profiles normalized to 1 mM with the species distribution curves, confirmed that the equilibrium model applied for the fitting of pH-potentiometric titration data, satisfactorily described the Mn(II) system. […] The formation of the [Mn(3,9-OPC2A)] complex was also confirmed by analytical HPLC at pH 7.0 relying on the different retention times of the ligand and the complex (the difference is more than 2 min (Figures S20 and S23)).
The stability constants of the complexes are summarized and compared to those of the chelates formed with H21,7-DO2A, H21,4-DO2A, H23,6-PC2A, H23,9-PC2A, and H21,7-O2DO2A, in Table 3. H23,9-OPC2A forms considerably weaker complexes with all the metal ions involved in the study, than H23,9-PC2A, H23,6-PC2A, H21,7-DO2A, and H21,4-DO2A chelators. […] A similar trend in the stability constants can be observed, when the stability of the structurally related ligands is compared (H23,9-PC2A vs. H21,7-DO2A and, at a somewhat lesser extent, in the case of H23,6-PC2A vs. H21,4-DO2A ligands). […] Therefore, we have calculated the pMn values (pMn = −log(Mn(II)free) for the Mn complexes, by using the conditions proposed by É. Tóth and coworkers (cMn^2+ = cligand = 1 × 10^−5 M, T = 25 °C, pH = 7.4). As it is seen from the data presented in Table 3, the value characteristic for the [Mn(3,9-OPC2A)] complex is as high (pMn = 8.69) as it is for the [Mn(3,9-PC2A)] chelate (despite its lower stability constant), which is, in fact, the highest known value for a monoaquated macrocyclic Mn(II) complex (pMn = 8.64). This means that more than 99,97% of the total Mn(II) in the system is chelated by the H23,9-OPC2A ligand near pH = 7.4 in equilibrium.
Metal stock solutions were prepared from the highest analytical grade chemicals, and their concentrations were determined by complexometric titration with standardized Na2H2EDTA and eriochrome black T indicator in the presence of ascorbic acid, and potassium hydrogen tartrate for MnCl2, murexide indicator for CaCl2 and CuCl2, eriochrome black T for MgCl2 and xylenol orange in the presence of hexamethylenetetramine for the solution of ZnCl2. The concentration of the ligand stock solution was determined by pH-potentiometric titrations. The protonation constants of the ligand were determined by the pH potentiometric titrations with 0.15 M NaOH, using 0.0025 M ligand solutions. The ionic strength was set to 0.15 M by using NaCl. […]

[2] = Serum stability in Seronorm followed by r1p relaxation rates; format: in vitro ADME, human
Description: Serum “stability” of the [Mn(3,9-OPC2A)] chelate: during MRI investigations, the CAs are injected into the vein of the patients and, following their injection, the complexes can meet with different proteins present in the blood serum, which are known to bind the essential metal ions in relatively strong manner. Therefore, the plasma proteins can potentially initiate transmetalation/transchelation reactions, especially in the case of Mn(II) complexes whose thermodynamic stability is lower than the stability of the chelates formed with essential metal ions, such as Zn(II) or Cu(II). What is more, for some Mn(II) complexes, depending upon the stability constants, of course, the Ca(II) ions present at high concentrations in the serum can initiate the dissociation of the complex, as in the case of [Mn(EGTA)]^2^−, [Mn(BAPTA)]^2^−, or [Mn(CaM)], for instance. In nuclear medicine, serum “stability” studies are routinely performed, in order to access the integrity of the chelates in the given competitive media.
The serum stability of the Mn(II) complexes was studied by following the r1p relaxation rates of the complex over time, using 1.0 mM solutions in SeronormTM (Seronorm = commercially available lyophilized human blood serum, Sero, Stasjonsveien, Norway) at pH = 7.43 and 25 °C.

[3] = Mn^2+ complex, T = 25 °C, I = 0.15 M NaCl

log KMnHL [1, 3]	log KMnL [1, 3]	log KMnLOH [1, 3]	total Mn(II) chelated by the ligand in equilibrium ([1]; near pH = 7.4, pMn conditions)	pMn ([1]; pMn = −log(Mn(II)free), cMn^2+ = cligand = 1 × 10^−5 M, T = 25 °C, pH = 7.4)	time over which the relaxation rate remained constant in Seronorm ([2]; 1.0 mM complex, pH = 7.43, 25 °C, negligible dissociation)	r1p in Seronorm solution ([2]; 1.41 T, 25 °C) [mM⁻¹ s⁻¹]	Compound
2.40(2)	13.03(1)	11.49(1)	more than 99,97%	8.69	–	–	O=C(O)CN1CCOCCN(CC(=O)O)Cc2cccc(n2)C1 [H23,9-OPC2A, 6-Oxa-3,9,15-triazabicyclo(9.3.1)pentadeca-1(15),11,13-triene-3,9-diacetic acid]
–	–	–	–	–	at least 80 h	5.09	O=C([O-])CN1CCOCCN(CC(=O)[O-])Cc2cccc(n2)C1.[Mn+2] [[Mn(3,9-OPC2A)]]
